Results from patent publication US9695155B2, “Herbicidal substituted pyrimidinyloxy benzene compounds” (E. I. DU PONT DE NEMOURS AND COMPANY, priority 2013, dated 2017).

Tests used:
[1] = test system: yellow nutsedge; experiment: Test C preemergence; format: in vivo, Cyperus esculentus
Text: (§1) Seeds of plant species selected from blackgrass (Alopecurus myosuroides), Italian ryegrass (Lolium multiflorum), wheat, winter (winter wheat, Triticum aestivum), galium (catchweed bedstraw, Galium aparine), corn (Zea mays), large (Lg) crabgrass (Digitaria sanguinalis), giant foxtail (Setaria faberii), johnsongrass (Sorghum halepense), lambsquarters (Chenopodium album), morningglory (Ipomoea coccinea), yellow nutsedge (Cyperus esculentus), pigweed (Amaranthus retroflexus), ragweed (common ragweed, Ambrosia elatior), soybean (Glycine max), barnyardgrass (Echinochloa crus-galli), oilseed rape (Brassica napus), waterhemp (common waterhemp, Amaranthus rudis), kochia (Kochia scoparia), wild oat (Avena fatua), surinam grass (Brachiaria decumbens), foxtail, green (green foxtail, Setaria viridis), goosegrass (Eleusine indica), bromegrass, downy (downy bromegrass, Bromus tectorum), nightshade (eastern black nightshade, Solanum ptycanthum), cocklebur (common cocklebur, Xanthium strumarium), cupgrass, woolly (woolly cupgrass, Eriochloa villosa), bermudagrass (Cynodon dactylon), sunflower, (common oilseed sunflower, Helianthus annuus), Russian thistle (Salsola kali), and velvetleaf (Abutilon theophrasti) were planted into a blend of loam soil and sand and treated preemergence with test chemicals formulated in a non-phytotoxic solvent mixture which included a surfactant.
(§2) At the same time, plants selected from these crop and weed species and also barley, winter (winter barley, Hordeum vulgare), windgrass (Apera spica-venti), chickweed (common chickweed, Stellaria media), deadnettle (henbit deadnettle, Lamium amplexicaule), and canarygrass (littleseed canarygrass, Phalaris minor) were planted in pots containing Redi-Earth® planting medium (Scotts Company, 14111 Scottslawn Road, Marysville, Ohio 43041) comprising spaghnum peat moss, vermiculite, wetting agent and starter nutrients and treated with postemergence applications of test chemicals formulated in the same manner. Plants ranged in height from 2 to 18 cm (1- to 4-leaf stage) for postemergence treatments. Treated plants and controls were maintained in a greenhouse for 13 to 15 days, after which time all species were compared to controls and visually evaluated. Plant response ratings, summarized in Table C, are based on a scale of 0 to 100 where 0 is no effect and 100 is complete control. A dash (-) response means no test result.

[2] = test system: pigweed; experiment: Test C preemergence; format: in vivo, Amaranthus retroflexus
Text: as §1, §2

[3] = test system: rice; experiment: Test B flooded paddy test; format: in vivo, Oryza sativa; conditions: Flood, 250 g ai/ha, 0 to 100 scale where 0 is no effect and 100 is complete control; for plant injury at 250 g/ha: Oryza sativa, read-out: Plant response rating, Rice
Summary of the method: (§3)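 Post-emergence paddy-water application at the 2-leaf stage, with 3 cm flood kept for the whole test. Response was judged visually relative to controls after 13 to 15 greenhouse days, 0 indicating no effect and 100 complete control.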

[4] = test system: wheat, winter; experiment: Test C preemergence; format: in vivo, Triticum aestivum
Text: as §1, §2

[5] = test system: Heteranthera limosa; experiment: Test B flooded paddy test; format: in vivo; conditions: Flood, 250 g ai/ha, 0 to 100 scale where 0 is no effect and 100 is complete control; for pest or weed control at 250 g/ha: Heteranthera limosa, read-out: Plant response rating, Ducksalad
Summary of the method: as §3

[6] = test system: lambsquarters; experiment: Test C preemergence; format: in vivo, Chenopodium album
Text: as §1, §2

[7] = test system: corn; experiment: Test A preemergence; format: in vivo, Zea mays
Summary of the method: (§4)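 Visual 0–100 rating (100 = complete control) taken about 10 d post-treatment relative to untreated checks. Preemergence: directed soil spray on sown loam/sand pots. Postemergence: seedlings 2–10 cm, 1–2 leaf. Non-phytotoxic solvent formulation with surfactant.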

[8] = test system: morningglory; experiment: Test A postemergence; format: in vivo, Ipomoea spp.
Summary of the method: as §4

[9] = 16 g ai/ha, preemergence, scale 0 to 100 (0 no effect, 100 complete control)
[10] = 62 g ai/ha, preemergence, scale 0 (no effect) to 100 (complete control)
[11] = 125 g ai/ha, preemergence, scale 0 (no effect) to 100 (complete control)
[12] = 125 g ai/ha, 0 to 100 scale where 0 is no effect and 100 is complete control
[13] = Preemergence, 62 g ai/ha, scale 0 to 100, 0 no effect, 100 complete control
[14] = 500 g ai/ha, 0 to 100 scale where 0 is no effect and 100 is complete control
[15] = Preemergence, 31 g ai/ha, scale 0 to 100, 0 no effect, 100 complete control

Compound	Nutsedge, Yellow plant response rating [1, 9]	Nutsedge, Yellow plant response rating [1, 10]	Nutsedge, Yellow plant response rating [1, 11]	Pigweed plant response rating [2, 9]	Pigweed plant response rating [2, 10]	Pigweed plant response rating [2, 11]	Plant response rating, Rice [3]	Wheat plant response rating [4, 9]	Wheat plant response rating [4, 10]	Wheat plant response rating [4, 11]	Plant response rating, Ducksalad [5]	Lambsquarters plant response rating [6, 9]	Lambsquarters plant response rating [6, 10]	Lambsquarters plant response rating [6, 11]	Plant response rating, Pigweed [2, 13]	Plant response rating, Wheat [4, 13]	Plant response rating, Lambsquarters [6, 13]	other results
COc1cnn(-c2c(C#N)cccc2Oc2ncc(Cl)cn2)c1 [Compound 137]	0	5	10	75	90	100	0	0	0	0	30	100	100	100				
Clc1cnc(Oc2ccccc2-n2cc(Cl)cn2)nc1 [Compound 3]							0				90							Corn plant response rating [7, 12]: 0; Corn plant response rating ([7]; 500 g ai/ha, 0 to 100 scale, 0 no effect, 100 complete control, approx. 10 days): 10; Plant response rating, Morningglory [8, 12]: 10; Plant response rating, Morningglory ([8]; 500 g ai/ha, 0 to 100 scale, 0 no effect, 100 complete control): 70
FC(F)(F)c1ccn(-c2ccccc2Oc2ncc(Cl)cn2)n1 [Compound 2, 5-chloro-2-[2-[3-(trifluoromethyl)-1H-pyrazol-1-yl]phenoxy]pyrimidine]																		plant injury at 125 g/ha ([7]; Zea mays, pre-emergence, 240 h, 125 g ai/ha, 0 to 100 scale where 0 is no effect and 100 is complete control, read-out: Corn plant response rating): 0%; plant injury at 500 g/ha ([7]; Zea mays, pre-emergence, 240 h, 500 g ai/ha, 0 to 100 scale, 0 no effect, 100 complete control, approx. 10 days, read-out: Corn plant response rating): 30%; plant injury at 250 g/ha [3]: 0%; pest or weed control at 125 g/ha ([8]; Ipomoea, post-emergence, 240 h, 125 g ai/ha, 0 to 100 scale where 0 is no effect and 100 is complete control, read-out: Plant response rating, Morningglory): 30%; pest or weed control at 500 g/ha ([8]; Ipomoea, post-emergence, 240 h, 500 g ai/ha, 0 to 100 scale, 0 no effect, 100 complete control, read-out: Plant response rating Morningglory): 70%; pest or weed control at 250 g/ha [5]: 45%
CCOc1cnn(-c2ccccc2Oc2ncc(Cl)cn2)c1 [Compound 187]	0		5	45		100	0	0		0	65	5		100	90	0	98	Plant response rating, Nutsedge, Yellow [1, 13]: 5; Corn plant response rating (0 to 100 scale) ([7]; 125 g ai/ha): 0; Corn plant response rating [7, 14]: 40; Morningglory plant response rating [8, 12]: 70; Plant response rating, Morningglory [8, 14]: 100
FCc1cccc(Oc2ncc(F)cn2)c1-n1cc(C(F)(F)F)cn1 [Compound 118]	0	25	70	90	100	100	60	0	10	90	90	100	100	100				Plant response rating, Nutsedge, Yellow [1, 15]: 5; Plant response rating, Pigweed [2, 15]: 100; Plant response rating, Wheat [4, 15]: 0; Plant response rating, Lambsquarters [6, 15]: 100
FCc1cccc(Oc2ncc(Cl)cn2)c1-n1cc(Cl)cn1 [Compound 250]	0		5	85		100	0	0		0	70	90		100	100	0	100	
Fc1cccc(Oc2ncc(Cl)cn2)c1-n1cc(OCC(F)(F)F)cn1 [Compound 270]	0		45	100		100	0	0		5	100	80		100	100	0	100	Plant response rating, Nutsedge, Yellow [1, 13]: 15
N#Cc1cccc(Oc2ncc(Cl)cn2)c1-n1cnc(C(F)(F)F)c1 [Compound 252, 3-[(5-chloro-2-pyrimidinyl)oxy]-2-[4-(trifluoromethyl)-1H-imidazol-1-yl]benzonitrile]																		pest or weed control at 16 g/ha ([1]; Cyperus, pre-emergence, 16 g ai/ha, preemergence, scale 0 to 100 (0 no effect, 100 complete control), read-out: Nutsedge, Yellow plant response rating): 0%; pest or weed control at 125 g/ha ([1]; Cyperus, pre-emergence, 125 g ai/ha, preemergence, scale 0 (no effect) to 100 (complete control), read-out: Nutsedge, Yellow plant response rating): 60%; pest or weed control at 62 g/ha ([1]; Cyperus, pre-emergence, Preemergence, 62 g ai/ha, scale 0 to 100, 0 no effect, 100 complete control, read-out: Plant response rating, Nutsedge, Yellow): 40%; pest or weed control at 16 g/ha ([2]; Amaranthus retroflexus, pre-emergence, 16 g ai/ha, preemergence, scale 0 to 100 (0 no effect, 100 complete control), read-out: Pigweed plant response rating): 98%; pest or weed control at 125 g/ha ([2]; Amaranthus retroflexus, pre-emergence, 125 g ai/ha, preemergence, scale 0 (no effect) to 100 (complete control), read-out: Pigweed plant response rating): 100%; pest or weed control at 62 g/ha ([2]; Amaranthus retroflexus, pre-emergence, Preemergence, 62 g ai/ha, scale 0 to 100, 0 no effect, 100 complete control, read-out: Plant response rating, Pigweed): 100%; plant injury at 250 g/ha [3]: 0%; plant injury at 16 g/ha ([4]; Triticum aestivum, pre-emergence, 16 g ai/ha, preemergence, scale 0 to 100 (0 no effect, 100 complete control), read-out: Wheat plant response rating): 0%; plant injury at 125 g/ha ([4]; Triticum aestivum, pre-emergence, 125 g ai/ha, preemergence, scale 0 (no effect) to 100 (complete control), read-out: Wheat plant response rating): 45%; plant injury at 62 g/ha ([4]; Triticum aestivum, pre-emergence, Preemergence, 62 g ai/ha, scale 0 to 100, 0 no effect, 100 complete control, read-out: Plant response rating, Wheat): 0%; pest or weed control at 250 g/ha [5]: 75%; pest or weed control at 16 g/ha ([6]; Chenopodium album, pre-emergence, 16 g ai/ha, preemergence, scale 0 to 100 (0 no effect, 100 complete control), read-out: Lambsquarters plant response rating): 98%; pest or weed control at 125 g/ha ([6]; Chenopodium album, pre-emergence, 125 g ai/ha, preemergence, scale 0 (no effect) to 100 (complete control), read-out: Lambsquarters plant response rating): 100%; pest or weed control at 62 g/ha ([6]; Chenopodium album, pre-emergence, Preemergence, 62 g ai/ha, scale 0 to 100, 0 no effect, 100 complete control, read-out: Plant response rating, Lambsquarters): 100%
N#Cc1cnn(-c2c(CF)cccc2Oc2ncc(F)cn2)c1 [Compound 151]	0	5	25	100	100	100	20	0	0	40	70	100	100	100				
